Calls of active or inactive are those of the source. The rule behind the calls is not given here.
Legend:
[1] = target: T1, E-selectin (Homo sapiens) (UniProt P16581); assay: Inhibitory activity against Selectin E was determined; IA=Inactive
T1 sequence (whole entry): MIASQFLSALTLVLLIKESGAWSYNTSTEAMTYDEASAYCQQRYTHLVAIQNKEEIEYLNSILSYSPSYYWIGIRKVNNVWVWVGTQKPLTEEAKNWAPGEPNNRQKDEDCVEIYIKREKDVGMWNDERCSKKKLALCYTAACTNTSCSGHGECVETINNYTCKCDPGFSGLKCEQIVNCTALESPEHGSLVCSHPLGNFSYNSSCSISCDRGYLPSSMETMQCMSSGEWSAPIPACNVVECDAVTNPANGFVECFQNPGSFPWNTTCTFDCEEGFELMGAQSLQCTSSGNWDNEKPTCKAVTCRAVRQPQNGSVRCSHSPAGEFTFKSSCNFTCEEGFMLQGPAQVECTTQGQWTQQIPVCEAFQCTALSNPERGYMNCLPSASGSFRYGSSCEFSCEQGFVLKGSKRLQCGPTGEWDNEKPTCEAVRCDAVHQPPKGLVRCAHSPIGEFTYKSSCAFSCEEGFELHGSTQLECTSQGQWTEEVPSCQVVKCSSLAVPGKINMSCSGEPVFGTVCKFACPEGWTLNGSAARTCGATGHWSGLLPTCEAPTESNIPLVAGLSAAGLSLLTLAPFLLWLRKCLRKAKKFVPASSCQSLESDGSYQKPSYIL

P-selectin = target: T2, P-selectin (Homo sapiens, UniProt P16109); assay: Inhibitory activity against P-selectin was determined
T2 sequence (P16109 whole entry): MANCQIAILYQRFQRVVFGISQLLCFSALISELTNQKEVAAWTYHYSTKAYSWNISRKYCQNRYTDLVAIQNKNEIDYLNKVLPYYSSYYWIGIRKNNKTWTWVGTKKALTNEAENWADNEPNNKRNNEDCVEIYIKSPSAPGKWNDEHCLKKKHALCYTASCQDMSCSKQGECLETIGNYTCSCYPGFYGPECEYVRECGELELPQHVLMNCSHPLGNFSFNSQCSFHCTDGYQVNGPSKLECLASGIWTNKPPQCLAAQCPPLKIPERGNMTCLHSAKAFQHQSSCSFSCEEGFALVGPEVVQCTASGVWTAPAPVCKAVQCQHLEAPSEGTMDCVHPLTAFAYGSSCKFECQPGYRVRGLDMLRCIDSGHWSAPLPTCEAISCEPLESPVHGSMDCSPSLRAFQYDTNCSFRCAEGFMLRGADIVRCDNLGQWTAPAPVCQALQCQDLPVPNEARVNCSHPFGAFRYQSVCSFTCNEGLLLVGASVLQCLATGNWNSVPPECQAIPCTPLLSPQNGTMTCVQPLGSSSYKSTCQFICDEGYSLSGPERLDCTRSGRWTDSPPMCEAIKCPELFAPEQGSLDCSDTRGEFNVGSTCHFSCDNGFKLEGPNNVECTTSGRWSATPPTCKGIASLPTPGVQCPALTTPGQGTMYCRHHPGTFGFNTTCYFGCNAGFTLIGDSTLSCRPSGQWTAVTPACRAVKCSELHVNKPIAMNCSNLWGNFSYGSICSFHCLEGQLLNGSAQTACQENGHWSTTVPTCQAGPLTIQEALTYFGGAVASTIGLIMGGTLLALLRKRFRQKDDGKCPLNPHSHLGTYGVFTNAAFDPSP

[2] = target: T3, L-selectin (Homo sapiens) (UniProt P14151); assay: Inhibitory activity against L-selectin was determined; IA=Inactive
T3 sequence (whole entry): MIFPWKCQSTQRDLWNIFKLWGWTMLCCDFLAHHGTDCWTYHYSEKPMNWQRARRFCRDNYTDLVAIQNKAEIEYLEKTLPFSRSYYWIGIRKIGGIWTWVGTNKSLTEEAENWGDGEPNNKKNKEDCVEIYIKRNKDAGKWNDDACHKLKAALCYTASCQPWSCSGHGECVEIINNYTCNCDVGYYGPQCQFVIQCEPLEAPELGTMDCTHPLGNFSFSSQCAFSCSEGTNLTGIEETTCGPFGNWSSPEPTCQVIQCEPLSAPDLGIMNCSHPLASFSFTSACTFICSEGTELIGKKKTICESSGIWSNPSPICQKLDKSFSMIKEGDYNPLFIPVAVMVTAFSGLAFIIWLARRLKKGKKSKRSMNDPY

[3] = target: T4, P-selectin (Homo sapiens) (UniProt P16109); assay: Inhibitory activity against P-selectin was determined; IA=Inactive
T4 sequence (whole entry): T2 sequence (P16109 whole entry)

Row | Activity [1] | IC50 (P-selectin) [µM] | Activity [2] | Activity [3] | Compound
1 | inactive | 60 | inactive | – | C[C@@]12CCC[C@@](C)(C(=O)O)C1CC[C@@]13C[C@@H](O[C@H]4O[C@H](CO)[C@@H](O)[C@@H](O)[C@@H]4O)[C@@](C)(CCC12)C3 (stereo partly specified)
2 | inactive | – | inactive | inactive | C[C@@]12CCC[C@@](C)(C(=O)O)C1CC[C@]13C[C@H](O[C@H]4O[C@H](CO)[C@@H](O)[C@@H](O)[C@@H]4O)[C@](O)(CCC12)C3 (stereo partly specified)
